Test system: Tilapia aurea fry
Assay: Induction of feminization in Tilapia aurea fry via immersion treatment with ethinyl estradiol
Assay type: in vivo
Conditions: 3 minutes, 25° C., 3 dph fry
Description: Males and females of Tilapia aurea (about 12 months of age) provided by Prof. Chien-Hsien Kuo from the Department of Aquatic Biosciences at National Chiayi University (Taiwan) served as the parent fish in the following example. The male and female fish were separately raised in concrete ponds provided with water maintained at 25° C. and about 6 mg/L of dissolved oxygen under natural light, and were provided with feed ad libitum. Mating was carried out with a male-to-female ratio of 2:5. Fertilized eggs were flushed out from the oral cavity of the female fish to be collected, followed by incubation at 25° C. for 7 to 14 days. 3 dph fish fry were obtained.
Two immersion solutions respectively having ethinyl estradiol concentrations shown in Table 1 below were each prepared as follows. An appropriate amount of ethinyl estradiol was dissolved in 10 mL of ethanol, followed by mixing with 5 L of water in a water tank.
5 trials of feminization induction were conducted using a respective one of the two immersion solutions. Specifically, for each trial of feminization induction, the 3 dph Tilapia aurea fry (the amount thereof is shown in Table 1) were placed in the respective immersion solution at 25° C. for 3 minutes. […] After seven months of breeding, the gender of all the surviving fish was observed, and the feminization rate (i.e. the percentage of females) was calculated.

C#C[C@]1(O)CC[C@H]2[C@@H]3CCc4cc(O)ccc4[C@H]3CC[C@@]21C [ethinyl estradiol]
Feminization rate (%) (percentage of females) (immersion 142.85 ppm, gender observed after seven months of breeding, trial 5): 87%
Feminization rate of each trial (immersion 142.85 to 200 ppm, all 5 trials): ≥ 87%
